# In PMC10447463, “Data-mining unveils structure–property–activity correlation of viral infectivity enhancing self-assembling peptides” (Nature Communications, 2023):
# Where “and” joins values, the source holds several entries; their conditions need not be identical. Equal values may be shown once. Read-outs that look alike come from different tables or passages of the source.
# Assays:
# [1] = Zeta-potential measurement; format: physicochemical
# In short: (§1)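 One-day room-temperature aggregation at 1 mg/mL in PBS (pH 7.4) preceded measurement; samples then went into 1 mM KCl. Triplicates per sample, two independent experiments averaged.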
# [2] = β-sheet content by ATR-FT-IR; format: physicochemical; details: for b -sheet / %: Fig. S7 panel A, β-sheet content by ATR-FT-IR
# In short: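 β-sheet content came from ATR FT-IR spectra of lyophilized 1 mg/mL nanofibril solution (64 scans, 2 cm^-1 resolution). Conversion was measured by separating free monomer with a 3 kDa cutoff filter, then comparing fluorescamine fluorescence (ex 365/em 470 nm, 20 min RT) of filtrate versus unfiltered sample, in triplicate.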
# [3] = format: physicochemical; parameters: key to Fibril / Fibril Formation / TEM 2cat / Fibril: 1 = fibrils present; 0 non-fibrillar structures; details: for Fibril / Fibril Formation: 1 mg/mL, uranyl acetate stain, qualitative
# [4] = Turbidity, derived count rate of scattered light; format: physicochemical; details: for Count Rate / kcps: derived count rate of scattered light at 633 nm, 173°, from zeta-potential measurement, 0.1 mg/mL in 1 mM KCl after 1 d at 1 mg/mL in PBS, turbidity / microscopic aggregation, mean of triplicate; for Log Count Rate: log of derived count rate
# In short: as §1
# [5] = zeta-potential of peptide, source data of Figure 2C
# [6] = zeta-potential of the peptide assemblies, mean, Figure 3A source data
# [7] = TEM, 1 = fibrils present, 0 = non-fibrillar
# [8] = TEM, 1 = fibrils present, 0 = non-fibrillar structures
# [9] = category: fibrils present or non-fibrillar
# [10] = Log10 of derived count rate of scattered light (turbidity)
# [11] = logarithm of count rate in kcps
# [12] = turbidity, Log10 of derived count rate of scattered light, Figure 3A source data
# [13] = turbidity, log10 of derived count rate of scattered light
# [14] = FigS12 panel A, fibril category by TEM
Substance,Zeta-Pot. [1],"Zeta-Potential / mV [1, 5]","Zeta-Potential / mV [1, 6]",b -sheet / % [2],TEM 2cat ([3]; Fig S10 panel D),Fibril ([3]; Fig S10 panel E),Fibril / Fibril Formation ([3]; TEM),"Fibril [3, 7]","Fibril [3, 8]","TEM 2cat [3, 9]","Log10 Count Rate [4, 10]",Count Rate / kcps [4],"Log10 Count Rate [4, 12]","Log10 Count Rate [4, 13]","TEM 2cat [3, 14]","Fibril ([3]; FigS12 panel B, TEM)",other results
QCKIKIQINMWQ,11.73,11.38 mV,11.73 mV,36.23%,1,1,1,1,1,1,3.918,8271 kcps,3.918,3.918,–,–,"Count Rate ([4]; T0, mean of n = 3): 9558.2 kcps; Count Rate ([4]; T2m, mean of n = 3): 6927 kcps; Log10 Count Rate [4, 11]: 3.918"
QCKIKQII,11,9.183 mV,11 mV,40.51%,1,–,1,1,1,–,2.479,301 kcps,2.479,2.479,1,1,–
QCKIKQIINM,10.4,9.992 mV,10.4 mV,38.44%,1,–,1,1,1,1,4.313,20551 kcps,4.313,4.313,–,–,–
QCKIKQIINMWQ [reference compound],6.643,7.192 mV,6.64 mV,51.73%,1,1,1,1,1,1,3.415,2606 kcps,3.415,3.415,–,–,"Zeta Pot. / mV [1]: 6.643 mV; Zeta category ( +1 = if > 4 mV;-1 = if < -4 mV; 0 = -4mV to 4 mV) [1]: 1 (+1 = if > 4 mV); Zeta category ( +1 = if > 4 mV;-1 = if < -4 mV; 0 = -4mV to 4 mV) ([1]; category from zeta potential): 1 (+1 = if > 4 mV); Zeta Pot. / mV ([1]; mean, Std Zeta in next column): 6.643 mV; Zeta Pot. / mV ([1]; mean, Std in separate column): 6.643 mV; Zeta-pot. / mV ([1]; zeta potential of peptide, Fig S15 source data): 6.643 mV; FTIR ß-sheet content/ % [2]: 39.05%; FTIR ß-sheet content/ % ([2]; ATR-FT-IR, listed as EF-C): 39% and 39.05%; TEM: 1= fibrils, 0= aggregates (micelle), 0.5 = aggregates and fibrils, -1 = nothing obersved, STD prep ([3]; STD prep): 0.5; Log Count Rate ([4]; Fig S8 panels A, C, asymmetric log errors): 3.415; Log Count Rate ([4]; Fig S8 panels B, D): 3.415; Count Rate ([4]; Fig S8 panels B, D, turbidity, derived count rate of scattered light): 2602.27; Zeta Count Rate Category ([4]; category 1 / 0, no key given): 1; Zeta Count Rate Category ([4]; category 1 or 0 from count rate, key not given): 1; Zeta Count Rate / kcps ([4]; derived count rate of scattered light): 2602 kcps; Zeta Count Rate / kcps ([4]; derived count rate of scattered light, mean, std deviation in next column): 2602 kcps; Zeta Count Rate / kcps ([4]; derived count rate of scattered light, mean, std deviation in separate column): 2602 kcps; Log10 Count Rate [4, 11]: 3.415"
RGDKIRGDKI,-13.57,-7.422 mV,-13.57 mV,15.01%,0,0,0,0,0,–,2.456,286 kcps,2.456,2.456,0,0,–
RGECKFKFQF,23.97,22.32 mV,23.97 mV,46.18%,1,1,1,1,1,1,2.341,219 kcps,2.341,2.341,–,–,–
RGEKIKIQINM,15.3,16.35 mV,15.3 mV,38.16%,1,1,1,1,1,1,2.774,595 kcps,2.774,2.774,–,–,–
RLRLTLC,19.67,20.73 mV,19.67 mV,20.6858%,1,1,1,1,1,–,2.0991,126 kcps,2.0991,2.0991,1,1,–
RPRGLLLGNLR,-8.15,-5.002 mV,-8.15 mV,13.82%,0,–,0,0,0,–,2.322,210 kcps,2.322,2.322,0,0,–
SISISRRI,-17,-9.316 mV,-17 mV,48.78%,0,0,0,0,0,–,1.403,25 kcps,1.403,1.403,0,0,–
TKTLTKTL,-25.1,-13.63 mV,-25.1 mV,34.38%,0,–,0,0,0,–,2.711,515 kcps,2.711,2.711,0,0,–
